Measured values taken from ChEMBL document CHEMBL1136921, “Benzylguanidines and other galegine analogues inducing weight loss in mice” (J Med Chem, 2009).
Active and inactive are the calls of the source. The calls are words filed in the database; no cut-off is given here.

Columns and labels:
Mus musculus [1] = assay: Hypoglycemic activity in lean normal BALB/c mouse assessed as blood glucose level at equimolar dose of 0.5 mmol/kg galegine administered daily through diet for 7 days; assay type: functional, organism-based
Mus musculus [2] = assay: Antiobesity activity in lean normal BALB/c mouse assessed as change in average daily food intake at equimolar dose of 0.5 mmol/kg galegine administered daily through diet for 7 days; assay type: functional, organism-based
Mus musculus [3] = assay: Antidiabetic activity in lean normal BALB/c mouse assessed as effect on blood lactate level at equimolar dose of 0.5 mmol/kg galegine administered daily through diet for 7 days; assay type: functional, organism-based
Mus musculus [4] = assay: Antiobesity activity in lean normal BALB/c mouse assessed as change in average daily weight at equimolar dose of 0.5 mmol/kg galegine administered daily through diet for 7 days; assay type: functional, organism-based
Mus musculus [5] = assay: Hypoglycemic activity in lean normal BALB/c mouse assessed as blood glucose level at 0.57 mmol/kg/day administered through diet for 7 days relative to time-matched control; assay type: functional
Mus musculus [6] = assay: Toxicity in lean normal BALB/c mouse assessed as overt signs of behavioural changes at equimolar dose of 0.5 mmol/kg galegine administered daily through diet for 7 days; assay type: organism-based; conditions: in vivo, po, 168 h
Mus musculus [7] = assay: Antiobesity activity in lean normal BALB/c mouse assessed as change in average daily food intake at 0.57 mmol/kg/day administered through diet for 7 days relative to time-matched control; assay type: functional
Mus musculus [8] = assay: Antiobesity activity in lean normal BALB/c mouse assessed as change in average daily weight at 0.57 mmol/kg/day administered through diet for 7 days relative to time-matched control; assay type: functional
Mus musculus [9] = assay: Antiobesity activity in lean normal BALB/c mouse assessed as change in average daily weight at 0.5 mmol/kg/day administered through diet for 7 days relative to time-matched control; assay type: functional
Mus musculus [10] = assay: Antiobesity activity in lean normal BALB/c mouse assessed as change in average daily food intake at 0.5 mmol/kg/day administered through diet for 7 days relative to time-matched control; assay type: functional
Mus musculus [11] = assay: Hypoglycemic activity in lean normal BALB/c mouse assessed as blood glucose level at 0.5 mmol/kg/day administered through diet for 7 days relative to time-matched control; assay type: functional
Mus musculus [12] = assay: Antiobesity activity in lean normal BALB/c mouse assessed as change in average daily food intake at 0.60 mmol/kg/day administered through diet for 7 days relative to time-matched control; assay type: functional
Mus musculus [13] = assay: Antiobesity activity in lean normal BALB/c mouse assessed as change in average daily weight at 0.60 mmol/kg/day administered through diet for 7 days relative to time-matched control; assay type: functional
[14] = Metabolic stability in ob/ob mouse liver microsomes assessed as oxidative hydroxylation at 50 uM after 45 mins by HPLC-MS analysis; assay type: ADME, Microsome; conditions: 0.75 h
Mus musculus [15] = assay: Antiobesity activity in lean normal BALB/c mouse assessed as change in average daily weight at 0.62 mmol/kg/day administered through diet for 7 days relative to time-matched control; assay type: functional
Mus musculus [16] = assay: Antiobesity activity in lean normal BALB/c mouse assessed as change in average daily food intake at 0.62 mmol/kg/day administered through diet for 7 days relative to time-matched control; assay type: functional
Mus musculus [17] = assay: Antiobesity activity in lean normal BALB/c mouse assessed as change in average daily weight at 0.40 mmol/kg/day administered through diet for 7 days relative to time-matched control; assay type: functional
Mus musculus [18] = assay: Hypoglycemic activity in lean normal BALB/c mouse assessed as blood glucose level at 0.40 mmol/kg/day administered through diet for 7 days relative to time-matched control; assay type: functional
Mus musculus [19] = assay: Antiobesity activity in lean normal BALB/c mouse assessed as change in average daily food intake at 0.40 mmol/kg/day administered through diet for 7 days relative to time-matched control; assay type: functional
Mus musculus [20] = assay: Hypoglycemic activity in lean normal BALB/c mouse assessed as blood glucose level at 0.51 mmol/kg/day administered through diet for 7 days relative to time-matched control; assay type: functional
Mus musculus [21] = assay: Antiobesity activity in lean normal BALB/c mouse assessed as change in average daily weight at 0.51 mmol/kg/day administered through diet for 7 days relative to time-matched control; assay type: functional
Mus musculus [22] = assay: Antiobesity activity in lean normal BALB/c mouse assessed as change in average daily food intake at 0.51 mmol/kg/day administered through diet for 7 days relative to time-matched control; assay type: functional
Mus musculus [23] = assay: Antiobesity activity in lean normal BALB/c mouse assessed as change in average daily weight at 0.72 mmol/kg/day administered through diet for 7 days relative to time-matched control; assay type: functional
Mus musculus [24] = assay: Antiobesity activity in lean normal BALB/c mouse assessed as change in average daily food intake at 0.72 mmol/kg/day administered through diet for 7 days relative to time-matched control; assay type: functional
Mus musculus [25] = assay: Hypoglycemic activity in lean normal BALB/c mouse assessed as blood glucose level at 0.72 mmol/kg/day administered through diet for 7 days relative to time-matched control; assay type: functional
Mus musculus [26] = assay: Antiobesity activity in lean normal BALB/c mouse assessed as change in average daily weight at 0.70 mmol/kg/day administered through diet for 7 days relative to time-matched control; assay type: functional
Mus musculus [27] = assay: Antiobesity activity in lean normal BALB/c mouse assessed as change in average daily food intake at 0.70 mmol/kg/day administered through diet for 7 days relative to time-matched control; assay type: functional
Mus musculus [28] = assay: Hypoglycemic activity in lean normal BALB/c mouse assessed as blood glucose level at 0.70 mmol/kg/day administered through diet for 7 days relative to time-matched control; assay type: functional
Mus musculus [29] = assay: Antiobesity activity in high fat diet-induced obese BALB/c mouse model assessed as change in average daily food intake at 0.38 mmol/kg/day administered through diet for 28 days relative to time-matched control; assay type: functional
Mus musculus [30] = assay: Hypoglycemic activity in ob/ob mouse model assessed as blood glucose level at 0.26 mmol/kg/day administered through diet for 28 days relative to time-matched control; assay type: functional
Mus musculus [31] = assay: Antiobesity activity in ob/ob mouse model assessed as change in average daily food intake at 0.26 mmol/kg/day administered through diet for 28 days relative to time-matched control; assay type: functional
Mus musculus [32] = assay: Hypoglycemic activity in high fat diet-induced obese BALB/c mouse model assessed as blood glucose level at 0.38 mmol/kg/day administered through diet for 28 days relative to time-matched control; assay type: functional
Mus musculus [33] = assay: Antiobesity activity in ob/ob mouse model assessed as change in average daily weight at 0.26 mmol/kg/day administered through diet for 28 days relative to time-matched control; assay type: functional
Mus musculus [34] = assay: Antiobesity activity in high fat diet-induced obese BALB/c mouse model assessed as change in average daily body weight at 0.38 mmol/kg/day administered through diet for 28 days relative to time-matched control; assay type: functional
Mus musculus [35] = assay: Antiobesity activity in lean normal BALB/c mouse assessed as change in average daily food intake at 0.52 mmol/kg/day administered through diet for 7 days relative to time-matched control; assay type: functional
Mus musculus [36] = assay: Antiobesity activity in lean normal BALB/c mouse assessed as change in average daily weight at 0.52 mmol/kg/day administered through diet for 7 days relative to time-matched control; assay type: functional
Mus musculus [37] = assay: Hypoglycemic activity in lean normal BALB/c mouse assessed as blood glucose level at 0.52 mmol/kg/day administered through diet for 7 days relative to time-matched control; assay type: functional

Row | Compound | Activity (Mus musculus [1]) | Activity (Mus musculus [2]) | Activity (Mus musculus [3]) | Activity (Mus musculus [4]) | further results
1 | CC(C)=CCNC1=NCCN1 | inactive | inactive | inactive | inactive | –
2 | Cc1ccc(CNC(=N)N)cc1 | inactive | inactive | inactive | inactive | –
3 | CSCCCNC(=N)N | inactive | inactive | inactive | inactive | –
4 | N=C(N)NCCCCNC(=N)N | inactive | inactive | inactive | inactive | –
5 | N=C(N)NCc1ccc(O)cc1 | inactive | inactive | inactive | inactive | –
6 | CC(C)CCNC(=N)N | inactive | inactive | inactive | inactive | –
7 | N=C(N)NCc1ccccc1C(F)(F)F | inactive | inactive | inactive | inactive | –
8 | CC(C)=CCNC(=N)NC#N | inactive | inactive | inactive | inactive | –
9 | N=C(N)NCC1CCCO1 (configuration not stated) | inactive | inactive | inactive | inactive | –
10 | COc1ccc(CNC(=N)N)cc1OC | inactive | inactive | inactive | inactive | –
11 | N=C(N)NCc1c(F)cccc1Cl | inactive | inactive | inactive | inactive | –
12 | N=C(N)NCc1ccccc1Cl | – | – | – | – | Activity (Mus musculus [5]): 82%; Activity (Mus musculus [6]): Non-toxic; Activity (Mus musculus [7]): -21.1%; Activity (Mus musculus [8]): -10.7%
13 | COc1ccc(OC)c(CNC(=N)N)c1 | inactive | inactive | inactive | inactive | –
14 | CC(C)=CCNC=N | – | – | – | – | Activity (Mus musculus [9]): inactive; Activity (Mus musculus [10]): inactive; Activity (Mus musculus [11]): inactive
15 | COc1ccccc1CNC(=N)N | – | – | – | – | Activity (Mus musculus [6]): Non-toxic; Activity (Mus musculus [12]): -4.1%; Activity (Mus musculus [13]): -7%
16 | CCOc1ccc(CNC(=N)N)cc1 | inactive | inactive | inactive | inactive | –
17 | COc1ccc(CNC(=N)N)c(OC)c1OC | inactive | inactive | inactive | inactive | –
18 | CSCCNC(=N)N | inactive | inactive | inactive | inactive | –
19 | [H]/N=C(/N)N/C(=N/[H])NCCc1ccccc1 [PHENFORMIN] | – | – | – | – | Activity [14]: Unstable; Activity (Mus musculus [15]): -0.14%; Activity (Mus musculus [16]): -3.4%; Activity (Mus musculus [6]): Non-toxic

Row | Compound | Activity (Mus musculus [1]) | Activity (Mus musculus [2]) | Activity (Mus musculus [3]) | Activity (Mus musculus [4]) | further results
20 | Cc1ccccc1CNC(=N)N | inactive | inactive | inactive | inactive | –
21 | N=C(N)NCC1CCCCC1 | inactive | inactive | inactive | inactive | –
22 | N=C(N)NCc1ccc(Cl)c(Cl)c1 | – | – | – | – | Activity (Mus musculus [17]): -9.9%; Activity (Mus musculus [18]): 67%; Activity (Mus musculus [19]): -38.3%; Activity (Mus musculus [6]): Non-toxic
23 | N=C(N)NCc1ccccc1Br | – | – | – | – | Activity (Mus musculus [20]): 84%; Activity (Mus musculus [21]): -6%; Activity (Mus musculus [22]): -17.7%; Activity (Mus musculus [6]): Non-toxic
24 | COc1cccc(CNC(=N)N)c1OC | inactive | inactive | inactive | inactive | –
25 | NC(N)=NCc1ccc2c(c1)OCO2 | – | – | – | – | Activity (Mus musculus [6]): Non-toxic; Activity (Mus musculus [12]): -18%; Activity (Mus musculus [13]): -2%
26 | N=C(N)NCc1cccs1 | – | – | – | – | Activity [14]: Stable; Activity (Mus musculus [23]): -2.3%; Activity (Mus musculus [6]): Non-toxic; Activity (Mus musculus [24]): 5.6%; Activity (Mus musculus [25]): 88%
27 | COc1ccc(CNC(=N)N)c(OC)c1 | inactive | inactive | inactive | inactive | –
28 | N=C(N)NCc1ccc(C(F)(F)F)cc1 | – | – | – | – | Activity (Mus musculus [6]): Non-toxic; Activity (Mus musculus [26]): -10.6%; Activity (Mus musculus [27]): -12.7%; Activity (Mus musculus [28]): 75%
29 | CC(C)=CCNc1ncccn1 | inactive | inactive | inactive | inactive | –
30 | CC(C)=CCN=C(N)N [GALEGINE] | – | – | – | – | Activity (Mus musculus [29]): -23.6%; Activity (Mus musculus [30]): 91%; Activity (Mus musculus [9]): -16.6%; Activity (Mus musculus [31]): -29.2%; Activity (Mus musculus [10]): -36.3%; Activity (Mus musculus [6]): Non-toxic; Activity (Mus musculus [11]): 53%; Activity (Mus musculus [32]): 77%; Activity (Mus musculus [33]): -7.3%; Activity (Mus musculus [34]): -9%
31 | N=C(N)NCc1ccccn1 | inactive | inactive | inactive | inactive | –
32 | N=C(N)NCc1ccc(Br)cc1 | – | – | – | – | Activity (Mus musculus [35]): -36.7%; Activity (Mus musculus [6]): Non-toxic; Activity (Mus musculus [36]): -23.3%; Activity (Mus musculus [37]): 51%
33 | COc1ccc(CNC(=N)N)cc1 | inactive | inactive | inactive | inactive | –
34 | COc1cccc(CNC(=N)N)c1 | inactive | inactive | inactive | inactive | –
35 | CC(C)=CCNc1ccccn1 | inactive | inactive | inactive | inactive | –
36 | N=C(N)N1CCc2ccccc2C1 | inactive | inactive | inactive | inactive | –
37 | C=CCNC(=N)N | inactive | inactive | inactive | inactive | –
